A short description of data set [1]: Solubility test (HPLC external standard method). In kind it is physicochemical. The procedure:
In this Experimental Example, the solubility of two crystal form in different pH of simulated human gastric juice were tested to study the solubility of the crystal forms.
Solubility test: HPLC external standard method
(§1) Chromatographic column: octadecyl silane bonded silica gel as filler
Mobile phase: phosphate buffer (pH3.5):methanol:acetonitrile=2:9:9 (volume ratio)
Detection wavelength: 215 nm
Excess amount of Crystal Form D and Crystal Form Y were placed in tubes with plug, to which were added 10 ml of water (purified water), hydrochloric acid solution of pH 1.2, hydrochloric acid solution of pH 2.0, acetate buffer of pH 4.0, phosphate buffers of pH 4.5, 5.0, 6.8, 8.0, respectively, and vibrated on 37° C. water bath, then filtered. The subsequent filtrate was subjected to HPLC assay.
The preparations of various pH buffers can be referred to “Guideline for Dissolution Test of Normal Oral Solid Formulation” issued by Center for Drug Evaluation of China Food and Drug Administration for dissolution medium, and are detailed as follows:
The hydrochloric acid solution of pH 1.2 is prepared by diluting 7.65 ml of hydrochloric acid with water to 1000 ml and mixing well.
The hydrochloric acid solution of pH 2.0 is prepared by diluting 1.17 ml of hydrochloric acid with water to 1000 ml and mixing well.
The acetate buffer of pH 4.0 is prepared by diluting mixture of 1.22 g of sodium acetate with 20.5 ml of 2 mol/L acetic acid solution with water to 1000 ml and mixing well. The 2 mol/L acetic acid solution is prepared by diluting 114 mL of glacial acetic acid with water to 1000 ml.
The phosphate buffers of pH 4.5, 5.0, 6.8, 8.0 are prepared by adjusting pH of 0.2 mol/L monopotassium phosphate solution with 0.2 mol/L sodium hydroxide solution to pH 4.5, 5.0, 6.8, 8.0, respectively. The 0.2 mol/L monopotassium phosphate solution is prepared by dissolving 27.22 g of monopotassium phosphate in water and diluting to 1000 mL. The 0.2 mol/L sodium hydroxide solution is prepared by dissolving 8.00 g of sodium hydroxide in water and diluting to 1000 mL.

A short description of data set [2]: High temperature stability test. Type of data set: physicochemical. The conditions noted are these: 60° C.; for Purity Change: sealed glass bottle.
Text: (§2) In this Experimental Example, high temperature, high humidity tests were used to study the chemical stability of the crystal form according to the invention.
(§3) Purity test: HPLC method (Chinese Pharmacopoeia 2015, Volume IV, general principles 0512)
as §1
(§4) Mobile phase A: 0.02 mol/L phosphate buffer (pH 3.0)-methanol-acetonitrile
(§5) Mobile phase B: methanol-acetonitrile-water
(§6) Detection wavelength: 215 nm.
(§7) Elution condition: gradient elution
The Crystal Form D of the compound of formula I was placed in a sealed and clean glass bottle and placed in 60° C. constant temperature oven. Samples were taken 10 day/30 day respectively for impurity content determination.
(§8) Note: Purity Change=(Difference of sample purity at day 0 and sample purity after a certain period)/Sample purity at day 0×100%.

A short description of data set [3]: High humidity stability test. The conditions noted are these: RH 92.5%; for Weight loss on drying / Purity Change: room temperature; for Purity Change: open dish. Type of data set: physicochemical.
Text: as §2, §3, §1, §4, §5, §6, §7
Weight loss on drying assay: Chinese Pharmacopoeia 2015, Volume IV, general principles 0831
as §8
The Crystal Form D of the compound of formula I was spread in open petri dish with thickness ≤5 mm, at room temperature, in constant temperature incubator of relative humidity (RH) 92.5%. Samples were taken 10 day/30 day for impurity content determination.

Data set [4] can be described thus: Long-term and accelerated stability test. In kind it is physicochemical.
Text: as §3, §1, §4, §5, §6, §7
The Crystal Form D of the compound of formula I was packed with inner bag (pharmaceutical low density polyethylene bag) and outer bag (pharmaceutical polyester/aluminum/polyethylene composite film bag), placed under the following stability testing conditions for stability tests.

A short description of data set [5]: Pharmacokinetic study in dogs. Type of data set: in vivo. The following applies: administered to dogs.
Data set [6] in a line: Pharmacokinetic study in mice. In kind it is in vivo. The following applies: administered to mice.
A short description of data set [7]: Pharmacokinetic study in monkeys. Type of data set: in vivo. The following applies: administered to monkeys.
Data set [8] in a line: Thermogravimetric Analysis (TGA). Type of data set: physicochemical. The following applies: heating rate 10K/min, N2 purge, 35-500° C. The procedure:
“Thermogravimetric Analysis (TGA)” is a common method for determining the thermal stability of compounds. The TGA curve can be measured, for example, on a Mettler Toledo TGA1 instrument. The error of TGA may be within about ±0.5 wt %. The term “substantially identical” means that such error variations are considered. Exemplary test conditions are: temperature range is 35-500° C., heating rate is 10 K/min, and purge gas is nitrogen (99.99%).
TGA is collected on Mettler Toledo TGA1 Thermogravimetric Analyzer, purge gas is N2 (99.99%), 100 ml/min; heating rate: 10K/min; temperature range: 35-500° C.
In the curve, the sample began to decompose at about 230° C. and no weight loss was found before decomposition.

The mark [9] stands for this setting: hydrochloric acid solution pH 1.2, 37° C.
Setting [10] is: hydrochloric acid solution pH 2.0, 37° C.
Setting [11] is: phosphate buffer pH 4.5, 37° C.
The mark [12] stands for this setting: phosphate buffer pH 5.0, 37° C.
The mark [13] stands for this setting: phosphate buffer pH 6.8, 37° C.
Setting [14] is: phosphate buffer pH 8.0, 37° C.
[15] abbreviates: high temperature condition, up to 30 day.
Setting [16] is: high humidity condition, up to 30 day.

Structures are written as SMILES. In brackets after ≈: the same amount, converted by molar mass.

Usually Solubility stands for the dissolved amount per volume that the medium holds. Read a low Solubility as a poorly soluble substance.

For `CCCCCCO[C@@H](C)c1cccc(-c2csc(NC(=O)c3cc(Cl)c(/C=C(\C)C(=O)O)c(Cl)c3)n2)c1OC` [Crystal Form D, 4-phenylthiazole derivative], the Solubility in data set [1] (acetate buffer pH 4.0, 37° C.) worked out at 10.6478 µg/mL (≈ 18 µM); in data set [1] (setting [9]), 19.1353 µg/mL (≈ 32.3 µM); in data set [1] (setting [10]), 14.5872 µg/mL (≈ 24.7 µM); in data set [1] (setting [11]) it was 11.4829 µg/mL (≈ 19.4 µM); in data set [1] (setting [12]), 13.8229 µg/mL (≈ 23.4 µM); in data set [1] (setting [13]), 36.0017 µg/mL (≈ 60.9 µM). In addition, the Solubility in data set [1] (setting [14]) was found to be 110.5589 µg/mL (≈ 187 µM); in data set [1] (water (purified water), 37° C.) it was 41.3607 µg/mL (≈ 69.9 µM). Also, the “Solubility compared with Crystal Form Y” value in data set [1] (simulated human gastric juice with various pH) was “significantly better than that of Crystal Form Y”. Besides, the “Purity Change” value was found to be 0.04% in data set [2] (10 day), 0.03% in data set [2] (30 day), 0.05% in data set [3] (10 day) and 0% in data set [3] (30 day). In addition, the “Change in crystal form (XRPD)” value in data set [2] (setting [15]) and in data set [3] (setting [16]) was “no change in crystal form” throughout. The “Change in purity (in words)” value in data set [2] (setting [15]) and in data set [3] (setting [16]) was “did not show obvious change in purity” in each case. The “Weight loss on drying” value turned out to be 0.31% in data set [3] (0 day), 0.35% in data set [3] (10 day) and 0.36% in data set [3] (30 day). In data set [3] (setting [16]), the “Change in weight loss on drying (in words)” value was “little change in weight loss on drying”. Besides, the “Change in purity or crystal form (in words)” value in data set [4] (6 month or more under long-term and accelerated conditions) was “no change in purity or crystal form”. Also, the Chemical purity in data set [4] (Accelerated (40° C. ± 2° C./RH75% ± 5%), 0 day) came to 99.83%; in data set [4] (Accelerated (40° C. ± 2° C./RH75% ± 5%), 6 month) it was 99.83%; in data set [4] (Long-term (25° C. ± 2° C./RH60% ± 5%), 0 day), 99.83%; in data set [4] (Long-term (25° C. ± 2° C./RH60% ± 5%), 6 month), 99.83%; in data set [4] (Long-term (30° C. ± 2° C./RH65% ± 5%), 0 day) it was 99.83%; in data set [4] (Long-term (30° C. ± 2° C./RH65% ± 5%), 6 month), 99.83%. Besides, the Pharmacokinetic properties result in data set [5], in data set [6] and in data set [7] was “good pharmacokinetic properties” throughout. In addition, the “Temperature at which the sample began to decompose (TGA)” value in data set [8] was “about 230 °C”.
As for `CCCCCCO[C@@H](C)c1cccc(-c2csc(NC(=O)c3cc(Cl)c(/C=C(\C)C(=O)O)c(Cl)c3)n2)c1OC` [Crystal Form Y, 4-phenylthiazole derivative], the Solubility came to 0.4327 µg/mL (≈ 0.731 µM) in data set [1] (acetate buffer pH 4.0, 37° C.); 0.7616 µg/mL (≈ 1.29 µM) in data set [1] (setting [9]); 0.4915 µg/mL (≈ 0.831 µM) in data set [1] (setting [10]); 0.5623 µg/mL (≈ 0.951 µM) in data set [1] (setting [11]); 0.6993 µg/mL (≈ 1.18 µM) in data set [1] (setting [12]); 3.2046 µg/mL (≈ 5.42 µM) in data set [1] (setting [13]). For the same compound, the Solubility in data set [1] (setting [14]) worked out at 43.0713 µg/mL (≈ 72.8 µM); in data set [1] (water (purified water), 37° C.) it was 5.2325 µg/mL (≈ 8.85 µM).

Values taken from patent publication US11174234B2, “Crystal form of 4-phenylthiazole derivative and preparation method thereof” (SICHUAN KELUN PHARMACEUTICAL RESEARCH INSTITUTE CO., LTD., priority 2018, dated 2021).
